From PubChem BioAssay (NCI)
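The compound was tested at five concentrations on cells cultured in 96-well plates, with a 48-hour exposure period. GI50 marks 50% less growth. TGI is the concentration that stops growth completely.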

Legend:
Test in all cases: inhibition of tumour cell growth, NCI panel, 48 h
ACHN renal = system: ACHN renal
HCT-116 colon = system: HCT-116 colon
HT29 colon = system: HT29 colon
K-562 leukemia = system: K-562 leukemia
MALME-3M melanoma = system: MALME-3M melanoma
NCI-H522 lung = system: NCI-H522 lung
SK-MEL-2 melanoma = system: SK-MEL-2 melanoma
SK-MEL-28 melanoma = system: SK-MEL-28 melanoma
SW-620 colon = system: SW-620 colon
SK-OV-3 ovarian = system: SK-OV-3 ovarian

Structure (SMILES)	TGI (ACHN renal)	TGI (HCT-116 colon)	TGI (HT29 colon)	TGI (K-562 leukemia)	TGI (MALME-3M melanoma)	TGI (NCI-H522 lung)	TGI (SK-MEL-2 melanoma)	TGI (SK-MEL-28 melanoma)	TGI (SW-620 colon)	TGI (SK-OV-3 ovarian)	GI50 (ACHN renal)	GI50 (HCT-116 colon)	GI50 (HT29 colon)	GI50 (K-562 leukemia)	GI50 (NCI-H522 lung)	GI50 (SK-MEL-2 melanoma)	GI50 (SK-MEL-28 melanoma)	GI50 (SW-620 colon)	GI50 (MALME-3M melanoma)	GI50 (SK-OV-3 ovarian)
COc1cccc(/C=C2\CCC(C)(CN(C)C)C2=O)c1 (configuration not stated)	> 100 µM	> 100 µM	> 100 µM	> 100 µM	> 100 µM	91.6 µM	> 100 µM	> 100 µM	> 100 µM											
O=c1ncccn1C1C=C(CO)C(O)C1O (configuration not stated)	> 50 µM		> 50 µM	> 50 µM	> 50 µM	> 50 µM	> 50 µM	> 50 µM	> 50 µM	> 50 µM										
Cn1c2ccccc2c2c(=O)c3ccccc3[nH]c21	> 100 µM	52.9 µM	> 100 µM	> 100 µM		> 100 µM	> 100 µM	> 100 µM	> 100 µM		31.1 µM	17.6 µM	54 µM	> 100 µM	> 100 µM	> 100 µM	> 100 µM	40.7 µM		
COc1cc2cnc3c4ccccc4ccc3c2cc1OC	> 100 µM		> 100 µM	> 100 µM	> 100 µM	> 100 µM	> 100 µM	> 100 µM	> 100 µM	> 100 µM										
N=S(c1ccccc1)c1ccccc1[N+](=O)[O-] (configuration not stated)	31 µM	31.6 µM	38.7 µM	45 µM	30.1 µM	11.7 µM	67.7 µM		31.4 µM	84.6 µM										
CCN(CC)CC(=O)N1CCc2c([nH]c3ccccc23)C1c1cccnc1 (configuration not stated)	> 100 µM	> 100 µM	> 100 µM	> 100 µM		> 100 µM		> 100 µM	> 100 µM	> 100 µM										
CCOC(=O)/C(=C/c1cccc(OC)c1)N(CC)CC	> 100 µM	> 100 µM	> 100 µM	> 100 µM		> 100 µM	> 100 µM	> 100 µM	> 100 µM	> 100 µM										
CCOC1Oc2ccccc2-c2oc(=O)c(Sc3ccc(C)cc3)cc21 (configuration not stated)	> 100 µM		> 100 µM	> 100 µM	91.6 µM	82.9 µM	> 100 µM	> 100 µM	> 100 µM	> 100 µM	28.8 µM		32 µM	15.4 µM	18.4 µM	49.4 µM	84.2 µM	37.5 µM	24.6 µM	20.5 µM
O=C1c2cccnc2-c2nc(-c3ccncc3)cc3c2c1nc1ccccc13	24.4 µM	51 µM	31.7 µM	> 100 µM	29.3 µM		> 100 µM	> 100 µM	41.6 µM	> 100 µM	12.1 µM	17.1 µM	17.9 µM	15.4 µM		> 100 µM	> 100 µM	12.7 µM	14.9 µM	> 100 µM
COc1ccc(Nc2nc3ccccc3nc2-c2cccs2)cc1	> 100 µM	> 100 µM		> 100 µM	> 100 µM	> 100 µM	> 100 µM	> 100 µM	> 100 µM	> 100 µM										
CCOC(=O)C(=O)Nc1ccccc1C(F)(F)F	> 100 µM	> 100 µM	> 100 µM		> 100 µM		> 100 µM	> 100 µM	> 100 µM	> 100 µM										
C[C@H]1[C@H](C)CC[C@]2(C(=O)NCCNCCN)CC[C@]3(C)C(=CC[C@@H]4[C@@]5(C)CCC(=O)C(C)(C)[C@@H]5CC[C@]43C)[C@H]12	3.27 µM	3.18 µM		5.35 µM	3.06 µM		4.29 µM	3.02 µM	3.47 µM	33.2 µM	1.76 µM	1.71 µM		2.23 µM		1.98 µM	1.65 µM	1.84 µM	1.64 µM	6.91 µM
CC1(C)OC2COC3(CNO)OC(C)(C)OC3C2O1 (configuration not stated)	> 100 µM	> 100 µM	> 100 µM	> 100 µM	> 100 µM		> 100 µM	> 100 µM	> 100 µM	> 100 µM										
C=CCO/N=C/c1cc(NC(=S)c2ccoc2C)ccc1Cl	19.4 µM	> 100 µM	26.2 µM		31.3 µM	23.7 µM	28 µM	> 100 µM	> 100 µM	36.2 µM										
C=C(CN1CCc2ccccc2C1)c1ccc(C(=O)Nc2ccccc2N)cc1	3.5 µM	> 23.2 µM		> 11.3 µM		3.72 µM	19.1 µM	6.53 µM	> 42.8 µM	3.17 µM	1.01 µM	1.93 µM		2.32 µM	0.732 µM	3.16 µM	0.389 µM	1.87 µM		1.08 µM
CCCCCCCCCCCCCC(=O)OCC1OC(=O)CC1O (configuration not stated)	> 100 µM	> 100 µM	> 100 µM	61.5 µM	> 100 µM		> 100 µM		> 100 µM	> 100 µM										
c1ccc(Cn2cnc3ccc(-c4nc(-c5ccc6c(c5)ncn6C5CCCCC5)cn5ccnc45)cc32)cc1	> 100 µM					5.09 µM	4.85 µM				3.08 µM				2.03 µM	2.02 µM				
COc1ccc(-c2nnc(N3CCN(C(=O)CN4CCN(c5ccc(OC)cc5)CC4)CC3)nc2-c2ccc(OC)cc2)cc1	50.8 µM	3.11 µM	10.8 µM	4.44 µM	23.1 µM	9.25 µM	44.1 µM	34.6 µM		45 µM	18.1 µM	1.71 µM	3.39 µM	2.14 µM	3.32 µM	10.2 µM	13.4 µM		3.17 µM	20.8 µM
Cc1ccc2c(c1)Sc1ccc(N=NN(C)C)cc1N2C	> 100 µM	> 100 µM	> 100 µM		> 100 µM	> 100 µM	> 100 µM	> 100 µM	> 100 µM	> 100 µM										
NC(N)=NS(=O)(=O)c1ccc(NC(=O)c2cccc3c(Nc4ccc(S(N)(=O)=O)cc4)c4ccccc4nc23)cc1	> 100 µM		> 100 µM	> 100 µM	> 100 µM	> 100 µM	> 100 µM	> 100 µM	> 100 µM	> 100 µM										
